According to paper PMC6142817, “New Urea Derivatives Are Effective Anti-senescence Compounds Acting Most Likely via a Cytokinin-Independent Mechanism” (Frontiers in Plant Science, 2018):

What was measured:
[1] = biological target: T1, Arabidopsis thaliana cytokinin oxidase/dehydrogenase 2 (AtCKX2) (Arabidopsis thaliana, UniProt Q9FUJ3); test: AtCKX2 inhibition assay (PMS/MTT); assay type: biochemical; settings: PMS/MTT kinetic assay
T1 construct: made in house; host or cells: Saccharomyces cerevisiae strain 23344c ura-, plasmid pYES2-AtCKX2; cell-free growth medium used directly
T1 sequence (Q9FUJ3 23-501): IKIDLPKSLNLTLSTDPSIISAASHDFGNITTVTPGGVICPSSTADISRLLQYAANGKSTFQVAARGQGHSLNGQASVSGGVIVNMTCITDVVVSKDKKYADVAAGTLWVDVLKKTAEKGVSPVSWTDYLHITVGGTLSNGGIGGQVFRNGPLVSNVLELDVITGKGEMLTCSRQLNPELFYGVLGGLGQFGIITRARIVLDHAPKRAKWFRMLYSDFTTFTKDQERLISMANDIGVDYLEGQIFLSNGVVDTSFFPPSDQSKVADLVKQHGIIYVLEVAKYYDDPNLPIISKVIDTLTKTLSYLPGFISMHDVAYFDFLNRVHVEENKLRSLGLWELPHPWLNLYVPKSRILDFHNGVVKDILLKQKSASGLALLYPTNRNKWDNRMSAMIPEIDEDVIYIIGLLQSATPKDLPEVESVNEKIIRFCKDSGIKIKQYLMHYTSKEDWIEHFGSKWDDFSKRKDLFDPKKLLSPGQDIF
Procedure: The method based on the coupled redox reaction of phenazine methosulfate and 3-(4,5-dimethylthiazol-2-yl)-2,5-diphenyltetrazolium bromide resulting in the formation of a formazan dye was used to test the ability of the synthesized compounds to inhibit AtCKX2. The assay was performed as described previously (Frébort et al., [2002]). Cell-free growth medium of Saccharomyces cerevisiae strain 23344c ura- harboring the plasmid pYES2- AtCKX2 was used directly as a source of AtCKX2 (Frébortová et al., [2007]).

[2] = tested on: young wheat plants under salt stress; test: Salt stress experiment; assay type: in vivo, Triticum a. cv. Hereward; settings: 100 nM, 75 mM NaCl
Procedure: A plastic container was filled with 45 g of perlite and 200 mL of Hoagland's solution (control) or with the addition of ASES to a final concentration of 100 nM. Sterilized seeds of Triticum a. cv. Hereward (6 g) were sown on the surface. Both treatments were done in two repetitions. The plants were left to grow in optimal conditions (22°C, 16/8, light/dark, 130 μM m^−2 s^−1, humidity 60%) for 7 days. During this period, most of the water evaporated and the containers were adjusted to the same weight by the addition of fresh distilled water. After this, all the containers contained 50 g (mL) of water. Then 100 mM NaCl solution was added in the final volume of 150 mL. Final concentration of the salt was 75 mM. The plants were then left to grow, analyzed visually and photographed at certain time-points.

COCCNC(=O)Nc1cnns1 [ASES, 1-(2-methoxy-ethyl)-3-1,2,3-thiadiazol-5-yl-urea]
inhibition of AtCKX2 [1]: neither ASES nor any of the other synthesized substances inhibited AtCKX2
delay of senescence of the individual leaves compared to the untreated control [2]: 5 to 6 days
% of plants with dry and/or completely yellow at least one quarter of the first leaf ([2]; twenty days after planting, control 81%): 8%
